In brackets after ≈: the same amount, converted by molar mass.
How the values were obtained:
[1] = tested on: Aphidius rhopalosiphi; test: LR50; higher = less toxic; settings: not reported; mortality
[2] = tested on: Typhlodromus pyri; test: LR50; higher = less toxic; settings: not reported; mortality
[3] = tested on: Bibionidae; settings: chronic/long-term; duration: 28 days
[4] = tested on: Oryctolagus sp.; settings: reproduction developmental; clinical signs
[5] = tested on: Apis mellifera; settings: acute, mortality
[6] = tested on: Colinus virginianus
[7] = tested on: Rattus norvegicus; settings: for NOAEL: neurology
[8] = tested on: Daphnia magna; settings: chronic/long-term; duration: 21 days
[9] = tested on: Pontoscolex corethrurus
[10] = tested on: Oncorhynchus mykiss

For `CCOP(=O)(SC(C)CC)SC(C)CC` (configuration not stated) [Cadusafos], the LR50 [1] was 3.75 g/ha, the LR50 [2] was 44.4 g/ha and the NOEC [3] was 32 µg/kg. For the same compound, the NOAEL [4] was 0.3 mg/kg-day, the LD50 ([5]; dermal) was 1.8 µg/piece and the LD50 ([5]; oral, unspecified) was 2.07 µg/piece. For the same compound, the LC50 ([6]; acute, oral, diet, mortality) was 10.8 mg/kg-day, the LD50 ([6]; acute, oral, mortality) was 16.1 mg/kg-day and the NOEL ([6]; reproduction developmental) was no less than 1.1 mg/kg-day. The LD50 ([7]; acute, oral, mortality) was 37.1 mg/kg, the NOAEL ([7]; chronic, duration: 2 years, F) was 0.045 mg/kg-day and the NOAEL ([7]; subchronic, duration: 90 days, oral, diet) was 0.067 mg/kg-day. It also gave an NOEC [8] of 0.231 mg/L, an LC50 ([9]; acute, mortality) of 12.5 mg/kg and an NOEC ([9]; chronic/long-term, reproduction) of 1.8 mg/kg. For the same compound, the LC50 ([10]; acute, duration: 96 hours, mortality) was 130 mg/L (≈ 481 µM) and the NOEC ([10]; chronic/long-term, duration: 95 days) was 5.22 mg/L.

Source: EPA's ToxValDB 9.5 (doi:10.2903/j.efsa.2006.68r)
